Measurements taken from patent publication US10633338B2, “Binding Function 3 (BF3) site compounds as therapeutics and methods for their use” (THE UNIVERSITY OF BRITISH COLUMBIA, priority 2014, dated 2020).
Like-named read-outs stand apart in the source and are kept apart here.

Experiments:
PSA = experiment: Prostate Surface Antigen (PSA) assay, PSA excreted into the media; type: cell-based, human; details: same plates as eGFP assay
Description: The evaluation of PSA excreted into the media was performed in parallel to the eGFP assay using the same plates (see above description). After the cells were incubated for 3 days 150 μl of the media was taken from each well, and added to 150 μl of PBS.

androgen receptor (AR) = molecular target: T1, androgen receptor (AR) (Homo sapiens, UniProt P10275, T878A); experiment: eGFP cellular AR transcription assay; type: cell-based
T1 construct: stably transfected eGFP-expressing LNCaP human prostate cancer cells (LN-ARR2PB-eGFP) containing an androgen responsive probasin-derived promoter; endogenous in cells; host or cells: LNCaP (LN-ARR2PB-eGFP)
T1 sequence (P10275 1-920 T878A): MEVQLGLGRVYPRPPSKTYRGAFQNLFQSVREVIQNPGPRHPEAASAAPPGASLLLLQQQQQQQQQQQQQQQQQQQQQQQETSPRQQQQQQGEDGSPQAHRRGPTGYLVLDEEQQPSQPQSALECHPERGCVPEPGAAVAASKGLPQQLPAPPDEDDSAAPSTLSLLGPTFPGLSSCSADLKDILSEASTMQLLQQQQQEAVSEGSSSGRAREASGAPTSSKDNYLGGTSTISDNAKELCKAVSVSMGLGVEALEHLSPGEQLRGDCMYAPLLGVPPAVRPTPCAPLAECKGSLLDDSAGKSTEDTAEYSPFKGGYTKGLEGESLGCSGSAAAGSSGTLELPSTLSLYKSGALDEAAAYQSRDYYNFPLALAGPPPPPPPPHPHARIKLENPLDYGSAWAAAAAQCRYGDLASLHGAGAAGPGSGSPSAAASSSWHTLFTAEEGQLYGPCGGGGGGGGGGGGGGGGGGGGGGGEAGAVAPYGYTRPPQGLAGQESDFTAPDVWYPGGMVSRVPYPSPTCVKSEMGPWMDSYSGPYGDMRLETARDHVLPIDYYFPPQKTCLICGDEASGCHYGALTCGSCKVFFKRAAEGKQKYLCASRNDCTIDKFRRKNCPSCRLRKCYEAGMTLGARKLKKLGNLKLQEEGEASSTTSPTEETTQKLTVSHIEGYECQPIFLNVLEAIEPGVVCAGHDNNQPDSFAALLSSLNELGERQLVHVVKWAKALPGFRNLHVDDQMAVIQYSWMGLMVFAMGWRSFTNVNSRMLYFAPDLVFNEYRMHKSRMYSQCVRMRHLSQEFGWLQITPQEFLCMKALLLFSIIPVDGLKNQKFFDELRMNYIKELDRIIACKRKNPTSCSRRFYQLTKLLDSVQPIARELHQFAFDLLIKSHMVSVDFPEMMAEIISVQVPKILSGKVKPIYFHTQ
Description: After 5 days, the cells were plated into a 96-well plate (35,000 cells/well) with 0.1 nM of the synthetic androgen R1881 and increasing concentrations (0-100 μM) of compound.
After 5 days, the cells were plated into a 96-well plate (35,000 cells/well) with 0.1 nM R1881 and increasing concentrations (0-100 μM) of compound.
In this assay, the expression of eGFP is under the control of an androgen responsive probasin-derived promoter and can quantify AR transcriptional activity.

[1] = Homo sapiens, 72 h, PSA excreted into media, 3 days incubation, read-out: PSA IC50
[2] = LN-ARR2PBeGFP LNCaP cells, 0.1 nM R1881, 3 days incubation, read-out: eGFP IC50
[3] = LN-ARR2PB-eGFP LNCaP cells, 0.1 nM R1881, 3 days, 0-100 μM compound, read-out: IC50 (eGFP)
[4] = PSA excreted into media, 3 days incubation
[5] = LN-ARR2PBeGFP LNCaP cells, 0.1 nM R1881, 3 days incubation
[6] = Homo sapiens, 72 h, media after 3 days, read-out: IC50 (PSA)

Compound	IC50 (PSA; [1]) [nM]	IC50 (androgen receptor (AR); [2]) [nM]	PSA IC50 (PSA; [4])	eGFP IC50 (androgen receptor (AR); [5])	also measured
Cc1cccc2c(-c3ncc4ccccc4n3)c[nH]c12 [Compound 13603]	339	633	–	–	–
Fc1cc(F)c2[nH]cc(-c3ccc4c(Cl)cccc4n3)c2c1F [Compound 13753]	98	160	–	–	–
c1ccc2cc(-c3c[nH]c4cnccc34)ccc2c1 [13 675]	–	–	–	–	IC50 (PSA; media after 3 days, read-out: IC50 (PSA)): 468 nM; IC50 (androgen receptor (AR); [3]): 450 nM
Cc1ccc2ccc(-c3c[nH]c4c(C)c(F)ccc34)nc2c1 [Compound 13660]	1890	2500	–	–	–
O=[N+]([O-])c1cccc2nc(-c3c[nH]c4c(F)cc(F)cc34)ccc12 [Compound 13670]	–	–	Inactive	Inactive	–
Fc1cc2[nH]cc(-c3ccc4c(F)cccc4n3)c2cc1F [Compound 13693]	120	110	–	–	–
Cc1cccc2c(-c3ccc4ocnc4c3)c[nH]c12 [13 759]	–	–	–	–	IC50 (PSA; [6]): 270 nM; IC50 (androgen receptor (AR); [3]): 300 nM
Cc1[nH]c2ccccc2c1SCc1ccccc1 [Compound 13416]	2320	2700	–	–	–
Fc1ccc2ccc(-c3c[nH]c4c(F)c(F)c(F)cc34)nc2c1 [Compound 13772]	172	200	–	–	–
O=[N+]([O-])c1cccc2c(-c3ccc4ccccc4c3)c[nH]c12 [Compound 13702]	140	210	–	–	–
Oc1cccc2c(C3Nc4ccccc4C34CCCCC4)c[nH]c12 (stereo not drawn) [Compound 13552]	1140	1130	–	–	–
Cc1cccc2c(-c3ccc4c([N+](=O)[O-])cccc4n3)c[nH]c12 [Compound 13632]	–	–	Inactive	Inactive	–
c1ccc2cc(-c3c[nH]c4ncccc34)ccc2c1 [13 676]	–	–	–	–	IC50 (PSA; [6]): 34 nM; IC50 (androgen receptor (AR); [3]): 53 nM
c1ccc2c(Cc3nn[nH]n3)c[nH]c2c1 [Compound 13700]	–	–	Inactive	Inactive	–
Fc1ccc(-c2c[nH]c3ncccc23)cc1 [13 740]	–	–	–	–	IC50 (PSA; [6]): 120 nM; IC50 (androgen receptor (AR); [3]): 120 nM
c1ccc2c(c1)NC(c1c[nH]c3ccccc13)C21CCCCC1 (stereo not drawn) [13 534]	–	–	–	–	IC50 (PSA; [6]): 1250 nM; IC50 (androgen receptor (AR); [3]): 800 nM
CNC(=O)c1cccc2nc(-c3c[nH]c4c(C)c(F)c(F)cc34)ccc12 [Compound 13771]	90	200	–	–	–
Clc1cccc2nc(-c3c[nH]c4c(Cl)cccc34)ccc12 [Compound 13748]	–	–	Inactive	Inactive	–
Cc1ccc2[nH]cc(-c3ccc4ccccc4n3)c2c1 [Compound 13577]	1730	3200	–	–	–
Cc1cccc2c(-c3ccc4c(Cl)cccc4n3)c[nH]c12 [Compound 13605]	–	–	Inactive	Inactive	–
O=[N+]([O-])c1cccc2nc(-c3c[nH]c4c(Cl)cc(F)cc34)ccc12 [Compound 13667]	–	–	Inactive	Inactive	–
Fc1ccc2nc(-c3c[nH]c4cc(F)c(F)cc34)ccc2c1 [Compound 13614]	597	1120	–	–	–
Cc1ccc(Cl)c2c(-c3ccc4ccccc4n3)c[nH]c12 [Compound 13681]	1700	2500	–	–	–
Fc1cc2c(-c3ccc4c(F)cccc4n3)c[nH]c2c(F)c1F [Compound 13751]	–	–	Inactive	Inactive	–
Fc1cc(F)c2[nH]ccc2c1 [Compound 13723]	–	–	Inactive	Inactive	–
Cc1cccc2c(-c3cccnc3)c[nH]c12 [Compound 13655]	610	1660	–	–	–
Brc1cccc2c(-c3ccc4ccccc4n3)c[nH]c12 [Compound 13621]	8	20	–	–	–
Cc1cc(F)cc2c(-c3cc(C#N)c4ccccc4n3)c[nH]c12 [Compound 13657]	–	–	Inactive	Inactive	–
Cc1cc(-c2c[nH]c3c(C)cccc23)nc2ccccc12 [Compound 13594]	99	166	–	–	–
CCc1cccc2c(-c3ccc4ccccc4n3)c[nH]c12 [Compound 13567]	230	200	–	–	–
